Broadly, the viability is a read-out of living cells in per cent, often relative to untreated cells. The inhibition is how much of the control response was suppressed. Higher therefore signals a response far below the control.

We go through 9 compounds from patent US10857155B2, “Compounds targeting proteins, compositions, methods, and uses thereof” (BioTheryX, Inc., priority 2017, dated 2020).

What all share (assay type): cell-based
The subject of one assay is IL-2. Put plainly: IL-2 in PBMCs on anti-human CD3 (OKT3) coated plates, Mesoscale analysis. Particulars: PBMC, 24 h, relative to DMSO control, read-out: Fold Change IL-2. Here is the method:
For the IL-2 analysis, 96 well plates were precoated with 1 μg/mL anti-human CD3 antibody (OKT3, eBioscience Inc., San Diego, Calif.). After washing with PBS, compounds were added (50 μL/well) followed by PBMCs diluted at 3-4 million cells/mL (150 μL/well). Plates were incubated for 24 h and the supernatants collected for Mesoscale IL-2 analysis.
(§1) Compound activity is measured as fold difference from the DMSO control. Compounds 1, 2, and 3 each reduced expression of IL-1-b in LPS-stimulated PBMCs by over 80% at 1 uM, relative to a just under 80% reduction with pomalidomide at 10 μM (FIG. 2).

Another assay has as its system H1048 cells. Put plainly: Cell viability assay (CellTiter-Glo), H1048 cells. Particulars: Homo sapiens, NCI-H1048, 72 h, 3 days; for viability at 1 µM: H1048, 1 μM; for viability at 10 µM: H1048, 10 μM. On the procedure: (§2) Molm-13 cells were cultivated in RPMI-1640 (10% FBS/1% pen-strep) and were plated in white walled 96-well plates at 20,000 cells/well. H1048 cells were cultured in DMEM:F12 media supplemented with 5% fetal bovine serum, insulin, transferrin, sodium selenite, hydrocortisone, estradiol, penicillin and streptomycin, and were plated in white walled 96-well plates at 20,000 cells/well.
(§3) Cells were treated with compound at the indicated concentration or DMSO (control) and the cultures were incubated for 3 days at 37° C. and 5% CO2. Following the incubation period, 100 μL of CellTiterGlow (CTG) reagent (CellTiter-Glo® Luminescent Cell Viability Assay, Promega (Madison, Wis.)) was added to each well. Following a 10 min incubation with shaking, luminescence was measured using a Victor Wallac Luminometer.
Background: Cellular ATP, detected with luciferase, serves as a proxy for viable cell number.

Another assay has as its system Molm-13 cells. Put plainly: Cell viability assay (CellTiter-Glo), Molm-13 cells. Particulars: for viability at 10 µM: MOLM-13, 10 μM. On the procedure:
FIG. 5 represents antiproliferative activity in Molm-13 cells. The cells were incubated with Compound 1, 2, or 3 (at the indicated concentration), DMSO, or pomalidomide. Compound activity was measured based on the signal from remaining viable cells.
as §2, §3

For a further assay, the system named is IL-6. Put plainly: IL-6 in LPS-induced PBMCs / CD14+ monocytes, Meso Scale assay. Here is the method: FIG. 3 represents the activity against IL-6 in CD14, monocytes, plated in 96 well plates and pretreated with Compounds 1, 2, or 3, or pomalidomide, for 1 h and then induced with 100 ng/mL LPS for 18-24 h. Cytokines were measured according to MesoScale protocol. Negative control wells were treated with DMSO. Cells were treated with compound (at the indicated concentrations) or 10 μM pomalidomide. Compound activity was measured as a percentage of LPS-induced activity.
(§4) Either frozen primary blood mononuclear cells (PBMCs) or frozen CD14+ mobilized peripheral blood monocytes were purchased from AllCells (PB003F, Normal Peripheral Blood MNC (Alameda, Calif.)). Cells were quick thawed, washed 1-time with RPMI-1640 (10% FBS/1% Pen-Strep) and plated in 96 well plates at 200,000 cells per well. Cells were pretreated with DMSO only, pomalidomide or the indicated compounds for 1 h and then induced with 100 ng/mL lipopolysaccharide (LPS) for 18-24 h. The supernatant was analyzed for IL-1 beta, IL-6, and TNF-alpha, using Meso Scale assay according to manufacturer's protocol. The negative control wells were treated with DMSO.
as §1

The next assay deals with T1, GSPT1 (Homo sapiens, UniProt P15170).
T1 construct: Whole cell extract was prepared with RIPA buffer according to manufacturer's protocol; endogenous in cells; host or cells: Jurkat cells
T1 sequence (P15170 whole entry): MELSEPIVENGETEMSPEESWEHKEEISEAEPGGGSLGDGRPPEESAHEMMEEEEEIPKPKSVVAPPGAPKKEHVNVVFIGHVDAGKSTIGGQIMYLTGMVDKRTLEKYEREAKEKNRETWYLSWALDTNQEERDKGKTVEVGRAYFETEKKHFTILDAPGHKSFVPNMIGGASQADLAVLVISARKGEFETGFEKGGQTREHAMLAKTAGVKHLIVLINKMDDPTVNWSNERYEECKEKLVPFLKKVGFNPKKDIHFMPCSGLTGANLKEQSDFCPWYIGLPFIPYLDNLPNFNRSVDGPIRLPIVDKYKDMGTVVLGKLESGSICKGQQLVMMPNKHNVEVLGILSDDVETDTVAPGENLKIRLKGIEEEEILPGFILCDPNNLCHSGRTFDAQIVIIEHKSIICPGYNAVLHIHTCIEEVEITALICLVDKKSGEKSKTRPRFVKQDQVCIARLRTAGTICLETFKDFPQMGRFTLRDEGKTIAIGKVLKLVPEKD
Kind of assay: Western blot analysis of GSPT1 protein levels in Jurkat cells. Particulars: DMSO = 100.00; for GSPT1 protein level (% of DMSO control) at 1 µM: 1 uM compound; for GSPT1 protein level (% of DMSO control) at 0.1 µM: 100 nM compound. On the procedure: FIG. 1 represents the activity against CK1α, ikaros, and GPST1 in Jurkat cells, plated in 96 well plates. Cells were pretreated with compounds for 4 h and then lysed and protein levels measure via Western blots. The negative control wells were treated with DMSO. Cells were treated with the indicated compound at the indicated concentration. Compound activity is measured as a decrease in GSPT1 protein levels.
Western Blot Protocol: Cell lines were grown in RPMI 1640 supplemented with streptomycin, penicillin and 10% fetal bovine serum.
Jurkat cells were cultured at approximately 10^6 cells per mL, DMSO or the indicated compound was added to the cells and allowed to incubate for 6-8 h. Whole cell extract was prepared with RIPA buffer according to manufacturer's protocol (Pierce (Dallas, Tex.)). Briefly, ˜2×10^6 cells were washed once in PBS, the cell pellet was resuspended in RIPA buffer and allowed to incubate for 15 min on ice. Cell debris was removed by centrifugation and the cleared whole cell lysate was transferred to a new tube for further analysis.
For western blot analysis, whole cell extracts were separated on 4-12% SDS-polyacrylamide gels, transferred to nitrocellulose and probed with the indicated primary antibodies. Membranes were subsequently washed and probed with the appropriate horseradish peroxidase (HRP)-conjugated secondary antibody. Membranes were subsequently washed and probed with the appropriate IRDye secondary antibodies (LI-COR). The signal was detected using the Odyssey Imaging System (LI-COR).
Background: A western blot detects proteins with antibodies after separation by electrophoresis.

The test system of a further assay is TNF-α. Put plainly: TNF-alpha in LPS-induced PBMCs / CD14+ monocytes, Meso Scale assay. Here is the method:
FIG. 4 represents the activity against TNF-alpha in CD14, monocytes, plated in 96 well plates and pretreated with Compounds 1, 2, or 3, or pomalidomide, for 1 h and then induced with 100 ng/mL LPS for 18-24 h. Cytokines were measured according to MesoScale protocol. The negative control wells were treated with DMSO. Cells were treated with compound (at the indicated concentrations) or 10 μM pomalidomide. Compound activity was measured as a percentage of LPS-induced activity.
as §4, §1

Another assay concerns IL-1β. Kind of assay: IL-1 beta in LPS-induced PBMCs / CD14+ monocytes, Meso Scale assay. On the procedure:
FIG. 2 represents the activity against IL-1-beta in CD14 monocytes, plated in 96 well plates and pretreated with Compounds 1, 2, or 3, or pomalidomide, for 1 h and then induced with 100 ng/mL LPS for 18-24 h. Cytokines were measured according to MesoScale protocol. Negative control wells were treated with DMSO. Compound activity was measured as a percentage of LPS-induced activity.
as §4, §1

With `Cc1ccc(CCNC(=O)NCc2ccc3c(c2)CN([C@H]2CCCC(=O)NC2=O)C3=O)cc1Cl` [Compound 19, (S)-1-(3-chloro-4-methylphenethyl)-3-((2-(2,7-dioxoazepan-3-v)-1-oxoisoindolin-5-yl)methyl)urea], the fold induction at 0.1 µM with IL-2 was 1.2. Further, the viability at 1 µM in the assay with H1048 cells was 8.26%; in the assay on Molm-13 cells (Homo sapiens, 72 h, MOLM-13, 1 μM, 3 days), 79%. Moreover, the viability at 10 µM in the assay with H1048 cells is 3.09%. In addition, the values for the inhibition at 0.1 µM in the assay with IL-6, in the assay on TNF-α and with IL-1β were 17%, 33% and 37%, respectively. The GSPT1 protein level (% of DMSO control) at 1 µM on GSPT1 is 26.8%.
As to `COc1ccc(CC(=O)NCc2ccc3c(c2)CN([C@H]2CCCC(=O)NC2=O)C3=O)cc1Cl` [Compound 13, (S)-2-(3-chloro-4-methoxyphenyl)-N-((2-(2,7-dioxoazepan-3-yl)-1-oxoisoindolin-5-yl)methyl)acetamide], in the assay with IL-2, the fold induction at 1 µM worked out at 2.6. Besides, the viability at 1 µM with H1048 cells was 97.8%. Further, the viability at 10 µM stood at 44.2% in the assay with H1048 cells and 84% in the assay on Molm-13 cells (Homo sapiens, 72 h, 3 days). The inhibition at 1 µM in the assay on IL-6 worked out at 85%; with TNF-α it was 53%; in the assay with IL-1β, 77%. In addition, on GSPT1, the GSPT1 protein level (% of DMSO control) at 0.1 µM was determined as 95.9%. This compound also yielded a GSPT1 protein level (% of DMSO control) at 1 µM on GSPT1 of 46.2%.
Take `Cc1ccc(CC(=O)NCc2ccc3c(c2)CN([C@H]2CCCC(=O)NC2=O)C3=O)cc1` [Compound 9, (S)—N-((2-(2,7-dioxoazepan-3-yl)-1-oxoisoindolin-5-yl)methyl)-2-(p-tolyl)acetamide]: the fold induction at 1 µM in the assay on IL-2 was found to be 1.8. Besides, in the assay on H1048 cells, the viability at 1 µM turned out to be 57.1%. In addition, the viability at 10 µM in the assay with H1048 cells worked out at 7.27%; in the assay on Molm-13 cells (Homo sapiens, 72 h, 3 days) it was 99%. The results for the inhibition at 1 µM in the assay on IL-6, in the assay with TNF-α and in the assay with IL-1β were 63%, 64% and 61%, respectively. In addition, on GSPT1, the GSPT1 protein level (% of DMSO control) at 0.1 µM turned out to be 128%. Further, the GSPT1 protein level (% of DMSO control) at 1 µM on GSPT1 was 32.1%.
`O=C(Cc1ccc(Cl)c(CN2CCOCC2)c1)NCc1ccc2c(c1)CN([C@H]1CCCC(=O)NC1=O)C2=O` [Compound 15, (S)-2-(4-chloro-3-(morpholinomethyl)phenyl)-N-((2-(2,7-dioxoazepan-3-yl)-1-oxoisoindolin-5-yl)methyl)acetamide]: in the assay on IL-2, the fold induction at 0.1 µM was found to be 1. The viability at 1 µM in the assay with H1048 cells was 93.3%. The viability at 10 µM turned out to be 35% with H1048 cells and 84% in the assay with Molm-13 cells (Homo sapiens, 72 h, 3 days). Also, the inhibition at 0.1 µM with IL-6, in the assay with TNF-α and with IL-1β was 0% each time. The same compound had a GSPT1 protein level (% of DMSO control) at 0.1 µM at GSPT1 of 167%. On GSPT1, this compound showed a GSPT1 protein level (% of DMSO control) at 1 µM of 111%.
Regarding `Cc1ccc(NC(=O)NCCc2ccc3c(c2)CN([C@H]2CCCC(=O)NC2=O)C3=O)cc1Cl` [Compound 24, (S)-1-(3-chloro-4-methylphenyl)-3-(2-(2-(2,7-dioxoazepan-3-yl)-1-oxoisoindolin-5-yl)ethyl)urea], in the assay on IL-2, the fold induction at 0.1 µM was determined as 0.9. In addition, the viability at 10 µM with H1048 cells stood at 2.81%; in the assay on Molm-13 cells (Homo sapiens, 72 h, 3 days) it was 98%. Besides, the values for the inhibition at 0.1 µM in the assay on IL-6, with TNF-α and in the assay on IL-1β were 0%, 42% and 26%, respectively. On GSPT1, the GSPT1 protein level (% of DMSO control) at 0.1 µM was 122%. The same compound had a GSPT1 protein level (% of DMSO control) at 1 µM on GSPT1 of 126%.
On to `Cc1ccc(NC(=O)NCc2ccc3c(c2)C(=O)N([C@H]2CCCC(=O)NC2=O)C3=O)cc1Cl` [Compound 27, (S)-1-(3-chloro-4-methylphenyl)-3-((2-(2,7-dioxoazepan-3-yl)-1,3-dioxoisoindolin-5-yl)methyl)urea], for which, in the assay with IL-2, the fold induction at 0.1 µM was found to be 1.1. For the same compound, the viability at 1 µM with H1048 cells was 101%. In addition, the viability at 10 µM is 28.2% with H1048 cells and 89% with Molm-13 cells (Homo sapiens, 72 h, 3 days). The inhibition at 0.1 µM in the assay on IL-6 stood at 0%; in the assay on TNF-α it was 19%; in the assay on IL-1β it was 9%. Besides, the GSPT1 protein level (% of DMSO control) at 0.1 µM at GSPT1 came to 51.4%. The same compound showed a GSPT1 protein level (% of DMSO control) at 1 µM on GSPT1 of 23.8%.
Take `Nc1cccc2c1C(=O)N(C1CCC(=O)NC1=O)C2=O` (stereo not shown) [pomalidomide, reference compound]: the “effect on cell viability” value with Molm-13 cells (Molm-13 cells, 10 μM (FIG. 5)) is reported as “no effect on cellular viability”. Also, the “reduction of IL-6 levels” value in the assay with IL-6 (LPS-stimulated PBMCs, 10 μM (FIG. 3)) was “under 60%”. Moreover, the “reduction of expression of TNF-α” value with TNF-α (LPS-stimulated PBMCs, 10 μM (FIG. 4)) is listed as roughly 30%. For the same compound, the “reduction of expression of IL-1-b” value in the assay on IL-1β (LPS-stimulated PBMCs, 10 μM (FIG. 2)) was “under 80%”.
`CCCNC(=O)NCc1ccc2c(c1)CN([C@H]1CCCC(=O)NC1=O)C2=O` [Compound 4, (S)-1-((2-(2,7-dioxoazepan-3-yl)-1-oxoisoindolin-5-yl)methyl)-3-propylurea]: the fold induction at 1 µM with IL-2 was 1.5. Also, in the assay with H1048 cells, the viability at 1 µM was 103% and the viability at 10 µM is 97.5%. The inhibition at 1 µM with IL-6 stood at 33%. At GSPT1, this compound gave a GSPT1 protein level (% of DMSO control) at 0.1 µM of 214% and a GSPT1 protein level (% of DMSO control) at 1 µM of 116%. In the assay on TNF-α, this compound came in with an inhibition at 1 µM of 44%. In addition, at 1 µM the inhibition in the assay on IL-1β was 39%.
Regarding `O=C1CCC[C@H](N2Cc3cc(CNC(=O)Nc4ccc(C(F)(F)F)c(Cl)c4)ccc3C2=O)C(=O)N1` [Compound 12, (S)-1-(3-chloro-4-(trifluoromethyl)phenyl)-3-((2-(2,7-dioxoazepan-3-yl)-1-oxoisoindolin-5-yl)methyl)urea], in the assay on IL-2, the fold induction at 1 µM worked out at 1.5. Moreover, the viability at 10 µM in the assay with Molm-13 cells (Homo sapiens, 72 h, 3 days) was 11%. Also, the figures for the inhibition at 1 µM in the assay on IL-6, in the assay on TNF-α and with IL-1β were 90%, 59% and 75%, respectively. This compound also gave a GSPT1 protein level (% of DMSO control) at 1 µM on GSPT1 of 18.6%.
